# Results published in patent EP1202628B1, “NOVEL HYPOXANTHINE AND THIOHYPOXANTHINE COMPOUNDS” (EURO-CELTIQUE S.A., priority 1999, dated 2001).
# pIC50: −log10 of the molar value.
# Target: T1, PDE V (Homo sapiens, UniProt O76074)
# T1 construct: Fractions that contain PDE V are pooled and dialyzed overnight; from tissue
# Experiment: Type V phosphodiesterase inhibition (hydrolysis of [3H]-cyclic GMP)
# Type: biochemical
# Details: enzyme isolated from platelets
# Description: Protocol for Enzyme Isloation: The Type V PDE is isolated using a procedure similar to that previously described by Weishaar et al., Hypertension 15:528, (1990). Briefly, 1-2 units of platelets are suspended in an equal volume of buffer A (20 mM Tris-HCl, pH 7.5, containing 2 mM magnesium acetate, I mM dithiothreitol, and 5 mM Na2EDTA) using a polytron. The proteinase inhibitor phenylmethylsulfonyl fluoride (PMSF) are also included in this buffer at a final concentration of 200 uM. This and all subsequent procedures are performed at 0-4°C. The homogenate is then centrifuged at 100,000 rpm for 60 minutes. The supernatant is then removed and filtered through four layers of gauze and applied to a DEAE-Trisacryl M column. The column is washed with several bed volumes of buffer B (20 mM Tris-HCl, pH 7.5, containing 2 mM magnesium acetate, 1 mM dithiothreitol, and […]) and eluted by two successive linear NaCl gradients (0.05-0.15 M, 300 ml total; 0.15-0.40 M, 200 ml total). Five ml fractions are collected and assayed for cyclic AMP and cyclic GMP PDE activity. Fractions that contain PDE V are pooled and dialyzed overnight against 4 L of buffer C (20 mM Tris-HCl, pH 7.5, containing 2 mM magnesium acetate and proteinase inhibitors). The dialyzed PDE V is then concentrated to 10% of the original volume, diluted to 50% with ethylene glycol monoethyl ether and stored at -20°C. PDE V can typically be retained for up to four weeks with little or no loss of activity.
# Measuring Type V PDE Activity: Enzyme activity is assessed by measuring the hydrolysis of [^3H]-cyclic GMP, as described by Thompson et al. (Thompson, W.J., Teraski, W.L., Epstein, P.N., Strada, S.J.: Adv. Cyclic Nucleotide Res. 10:69, 1979). The cyclic GMP concentration used in this assay is 0.2 uM, which approximates to the Km value. Protein concentration is adjusted to ensure that no more than 15% of the available substrate is hydrolyzed during the incubation period.
# All test compounds are dissolved in dimethyl sulfoxide (final concentration of 2.5%). This concentration of dimethyl sulfoxide inhibits enzyme activity by approximately 10%. The reference Type V PDE inhibitor zaprinast is evaluated with each assay.
# The compounds are tested over concentration range: 0.1, 1, 10, 100 uM (n=1), and IC50 determinations are made using 5 appropriate concentrations (n=2).
row,pIC50,Structure (SMILES)
1,4.45,"COc1ccc(Cn2cnc(=O)c3[nH]c(C(C)(C)OCc4ccc(F)cc4)nc32)cc1OC [3-(3,4-Dimethoxybenzyl)-8-(1-(4-fluorobenzyloxy)-1-methyl-ethyl)-hypoxanthine]"
2,4.84,COc1ccc(Cn2cnc(=O)c3[nH]c(C(C)(C)OCc4ccc(F)cc4)nc32)cc1OC1CCCC1 [3-(3-Cyclopentyloxy-4-methoxy-benzyl)-8-(1-(4-fluorobenzyloxy)-1-methyl-ethyl)-hypoxanthine]
3,4.90,COc1ccc(Cn2cnc(=O)c3[nH]c(C(C)(C)OCc4ccccc4)nc32)cc1OCc1ccccc1 [3-(3-benzyloxy-4-methoxy-benzyl)-8-(1-benzyloxy-1-methyl-ethyl)-hypoxanthine]
4,5.00,"COc1ccc(Cn2cnc(=O)c3[nH]c(C(C)(C)OCc4ccccc4)nc32)cc1OC [8-(1-Benzyloxy-1-methyl-ethyl)-3-(3,4-dimethoxybenzyl)-hypoxanthine]"
5,5.08,COc1ccc(Cn2cnc(=O)c3[nH]c(C(C)(C)OCc4ccccc4)nc32)cc1OC1CCCC1 [8-(1-benzyloxy-1-methyl-ethyl)-3-(3-cyclopentyloxy-4-methoxy-benzyl)-hypoxanthine]

# Continued, compound first:
row,Structure (SMILES),pIC50
1,"COc1ccc(Cn2cnc(=O)c3[nH]c(C(C)C)nc32)cc1OC [3-(3,4-Dimethoxy-benzyl)-8-(1-methyl-ethyl)-hypoxanthine]",4.98
2,CC(C)c1nc2c([nH]1)c(=O)ncn2Cc1cccc(Cl)c1 [3-(3-Chloro-benzyl)-8-(1-methyl-ethyl)-hypoxanthine],5.20
3,COc1ccc(Cn2cnc(=O)c3[nH]c(C(C)(C)O)nc32)cc1OC1CCCC1 [3-(3-Cyclopentyloxy-4-methoxy-benzyl)-8-(1-hydroxy-1-methyl-ethyl)-hypoxanthine],3.71
4,COc1ccc(Cn2cnc(=O)c3[nH]c(C(C)C)nc32)cc1OC1CCCC1 [3-(3-Cyclopentyloxy-4-methoxy-benzyl)-8-isopropyl-hypoxanthine],4.31
5,CC(C)c1nc2c([nH]1)c(=O)ncn2Cc1ccc(Cl)cc1 [3-(4-Chloro-benzyl)-8-(1-methyl-ethyl)-hypoxanthine],5.12
6,COc1ccc(Cn2cnc(=O)c3[nH]c(COCc4ccccc4)nc32)cc1OC1CCCC1 [8-Benzyloxymethyl-3-(3-cyclopentyloxy-4-methoxy-benzyl)-hypoxanthine],5.12
